Like-named read-outs stand apart in the source and are kept apart here.
Experiments:
[1] = tested on: Aspergillus flavus; assay: Minimum inhibitory concentration and synergism (Kull synergy index) of OPP/TBZ; assay type: cell-based; details: read-out: Amount of pure active substances which suppress growth (QA, QB; minimum inhibitory concentration)
From the text: For improving the overall performance of an antimicrobial treatment, the use of active substance mixtures is customary for compensating, for example, for gaps in the activity of one component or for optimizing the costs of preservation.
The synergism found for the mixture according to the invention can be determined via the following mathematical formula (cf. F. C. Kull, P. C. Elisman, H. D. Sylwestrowicz and P. K. Mayer, Appl. Microbiol. 9, 538 (1961):
Qa=amount of component A in the active substance mixture which achieves the desired effect, i.e. no microbial growth,
QA=amount of component A which, when used alone, suppresses the growth of the micro-organisms,
Qb=amount of component B in the active substance mixture which suppresses the growth of the micro-organisms,
QB=amount of component B which, when used alone, suppresses the growth of the micro-organisms.
Synergism of o-phenylphenol (OPP)/thiabendazole (TBZ)
Using the test micro-organism, Aspergillus flavus, the minimum inhibitory concentration of the active substance combinations listed in Table 2 were investigated.

[2] = tested on: mixture of moulds: Penicillium glaucum, Chaetomium globosum, Aspergillus niger, Aureobasidium pullulans; assay: Microbiological resistance of plasterboard treated with OPP in the gypsum core after inoculation with a fungal mixture, humid environment
From the text: For checking the effectiveness of a plasterboard treated with OPP in the gypsum core, the resistance was investigated in the laboratory after inoculation with a fungal mixture. For this purpose, sandwich-type plasterboard samples having the dimensions 14×5 cm are transferred to a 1 litre powder bottle and suspended by the bottle cap. At the start of the experiment, the test specimens thus prepared are immersed once in a mixture of the following moulds to simulate a strong fungal attack:
The mould species are material pests well known to the person skilled in the art and are therefore suitable for a qualifying conclusion about the degree of antimicrobial protection of a product treated with an OPP or the sodium or potassium salt thereof and optionally further active components. The sample boards are stored at room temperature over a period of up to 8 weeks, a water vapour-saturated atmosphere being continuously ensured by maintaining the initial amount of water at the bottom of the vessel (direct contact between plasterboard and water is not permitted). The assessment of the test specimens is effected at certain times and is carried out according to the following rating scheme:
0=no growth on the surface
1=slight growth (<10% of the surface infested)
2=moderate growth (<50% of the surface infested)
3=strong growth on the surface
Microbiological resistance of a plasterboard contaminated once in a humid environment

| Structure (SMILES) | MIC [1] [µg/mL] | Rating (mould growth on plasterboard surface) ([2]; 300 ppm OPP in the gypsum core, 1 week, water vapour-saturated atmosphere, room temperature) | Rating (mould growth on plasterboard surface) ([2]; 300 ppm OPP in the gypsum core, 3 weeks) | Rating (mould growth on plasterboard surface) ([2]; 300 ppm OPP in the gypsum core, 4 weeks) | Rating (mould growth on plasterboard surface) ([2]; 300 ppm OPP in the gypsum core, 8 weeks) | Rating (mould growth on plasterboard surface) ([2]; 500 ppm OPP in the gypsum core, 1 week) | Rating (mould growth on plasterboard surface) ([2]; 500 ppm OPP in the gypsum core, 3 weeks) | Rating (mould growth on plasterboard surface) ([2]; 500 ppm OPP in the gypsum core, 4 weeks) | Rating (mould growth on plasterboard surface) ([2]; 500 ppm OPP in the gypsum core, 8 weeks) | Rating (mould growth on plasterboard surface) ([2]; 750 ppm OPP in the gypsum core, 1 week) | Rating (mould growth on plasterboard surface) ([2]; 750 ppm OPP in the gypsum core, 3 weeks) | Rating (mould growth on plasterboard surface) ([2]; 750 ppm OPP in the gypsum core, 4 weeks) | Rating (mould growth on plasterboard surface) ([2]; 750 ppm OPP in the gypsum core, 8 weeks) | Concentration of use from which good effectiveness was found ([2]; based on the weight of the gypsum core) [ppm] | MIC ([1]; substance used alone) [µg/mL] |
| --- | --- | --- | --- | --- | --- | --- | --- | --- | --- | --- | --- | --- | --- | --- | --- |
| Oc1ccccc1-c1ccccc1 [OPP, o-phenylphenol] | 100 | 0/0 | 0/0 | 0/0 | 0/0 | 0/0 | 0/0 | 0/0 | 0/0 | 0/0 | 0/0 | 0/0 | 0/0 | ≥ 300 |  |
| c1ccc2[nH]c(-c3cscn3)nc2c1 [TBZ, thiabendazole, reference compound] |  |  |  |  |  |  |  |  |  |  |  |  |  |  | 500 |

— patent US20080134931A1, “Plasterboards Provided With Antimicrobial Effect” (priority 2005, published 2008)
